Experimental data reported in PubChem BioAssay AID1159561 (GlaxoSmithKline (GSK), 2015).
Calls of active or inactive are those of the source.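 How the source made its calls: active means toxic to mouse fibroblast host cells, with IC50 below 50 µM; inactive means the rest.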

Each compound was assayed on NIH-3T3 viability, ATP luminescence (assay: murine fibroblast viability via ATP level – cell-based, murine fibroblasts, cytotoxicity control for Trypanosoma cruzi inhibitor project (AID 1159561)). Settings: 4 days.

Compound	IC50
CN(Cc1ccccc1)Cc1nnnn1C1CCN(Cc2ccc(-n3ccnc3)cc2)CC1	4 µM
CS(=O)(=O)c1cccc(-c2cnc(N)c3c(-c4ccc(CO)cc4)csc23)c1	25 µM
COc1ccc(C(=O)N2CCC(Nc3cccnc3)C2)c(OC)n1 (configuration not stated)	> 50 µM (inactive)
CCCCNc1nccc(-c2c(-c3ccc(F)cc3)nn3c(N4CCOCC4)cccc23)n1	10 µM
Cc1cc(C)nc(N2CCC(N(Cc3cccnc3)C(=O)c3cccc(C#N)c3)CC2)n1	7.9 µM
COc1ccc(C(C)N(C)c2ncc3c(N)nc(N)nc3n2)cc1F (configuration not stated)	40 µM
Cc1c(C(=O)NCCCCn2ccnc2)oc2c(C)cccc12	32 µM
CCCN(Cc1ccc(OC)c(OC)c1)Cc1cc(=O)c2c(C)cc(C)cc2[nH]1	32 µM
O=C(NCCc1ccccc1Cl)c1cccn1-c1cccnc1	32 µM
CCN(CC)S(=O)(=O)c1ccc(Cn2nc(C(=O)Nc3ccncn3)c3ccccc32)cc1	40 µM
CN(C(=O)Nc1ccc2c(c1)CCN(C1CCC1)CC2)c1ccc(C#N)cc1	40 µM
CC(CNS(=O)(=O)c1ccc(OC(F)F)cc1)c1ccc(NC(=O)c2ccncc2)cc1 (configuration not stated)	> 50 µM (inactive)
Cn1nc([N+](=O)[O-])nc1N1CCCCC1	> 50 µM (inactive)
O=c1cc(NCCCNC2CCOc3c(I)cc(Cl)cc32)[nH]c2ccccc12 (configuration not stated)	25 µM
CCn1nccc1CN(C)C(=O)C=Cc1ccc(Cl)cc1	> 50 µM (inactive)
Cc1ccc(CNC2CCN(C[C@@H]3Cn4c(=O)ccc5ccc(=O)n3c54)CC2)cc1F	16 µM
CC(C)c1cc(C(=O)N2CCCC(c3cc4ncccc4[nH]3)C2)on1 (configuration not stated)	20 µM
Clc1ccc(Sc2cnccc2N2CCOCC2)cc1	> 50 µM (inactive)
CN(C)CCN(C)Cc1ccc(F)cc1NS(=O)(=O)c1ccc(Cl)c(Cl)c1	16 µM
CN(C)Cc1ccc(-c2ccc(S(=O)(=O)NCC3CCCO3)c(F)c2)cc1 (configuration not stated)	16 µM
COc1ccc(NS(=O)(=O)c2cccc(NC(=O)c3cc(F)cc(F)c3)c2)cc1	25 µM
Cc1[nH]nc2c1C(c1ccc(OCc3ccccc3F)cc1)SCC(=O)N2 (configuration not stated)	> 50 µM (inactive)
NC(=O)c1ccccc1Nc1nc(NC2CCCCC2)nc2[nH]ccc12	25 µM
O=C(COc1ncnc2cc([N+](=O)[O-])ccc12)NC(=O)NC1CCCCC1	> 50 µM (inactive)
CCC(=O)Nc1ccc(-c2nc3ccc(Cl)cc3[nH]2)cc1	> 50 µM (inactive)
O=C(c1ccc(OCCCc2cnc[nH]2)cc1)C1CC1	13 µM

Compound	IC50
c1ccc2c(CCOc3nccnc3-c3ccncc3)c[nH]c2c1	20 µM
O=C(NCCNc1noc(-c2ccc([N+](=O)[O-])cc2)n1)c1ccc(Cl)cc1	> 50 µM (inactive)
N#Cc1cc(N2CCCC2=O)ccc1Sc1ccccc1CO	> 50 µM (inactive)
CC(C)Oc1cccc(N2CCC(C(=O)N3CCCN(C(C)C)CC3)CC2)c1	32 µM
CCC(c1ccc(F)cc1)n1cncc1-c1cnn(C)c1 (configuration not stated)	25 µM
Cc1nn(C)c(Cl)c1CN(Cc1cccnc1)Cc1ccsc1	20 µM
CC1(C)CCC(=Cc2ccc(Cl)cc2)CC1(O)Cn1ccnc1 (configuration not stated)	16 µM
O=C(NCCc1cccnc1)c1ccc(-c2ccccc2F)o1	40 µM
COc1cc(C(C)C)c(S(C)(=O)=O)cc1C(=O)N1CCN(c2ccccc2Cl)CC1	> 50 µM (inactive)
Cc1cc2ncn(-c3ccc([N+](=O)[O-])cc3C#N)c2cc1C	> 50 µM (inactive)
Cc1ccc(S(=O)(=O)Nc2ccc(CN3CCN(C(=O)c4cccc(C#N)c4)CC3)cc2)cc1	> 50 µM (inactive)
CS(=O)(=O)c1ccc(CC(=O)Nc2nc(-c3ccc(Cl)s3)cs2)cc1	> 50 µM (inactive)
CN1CCN(c2nc(-c3ccc(Cl)cc3)c3c(N)n(C)nc3n2)CC1	25 µM
O=S(=O)(c1ccccc1C(F)(F)F)N1CCN(Cc2ccc(-n3ccnc3)cc2)CC1	> 50 µM (inactive)
COc1ccc2nccc([C@H](O)CN3CC[C@H](NC(=O)c4ccc(Br)cc4)[C@@H](O)C3)c2n1	> 50 µM (inactive)
Cc1ccc(C)c(OC2CCN(C(=O)C(C)n3ccnc3)CC2)c1 (configuration not stated)	> 50 µM (inactive)
N#Cc1nc(C=Cc2ccccc2)oc1NCc1cccnc1	13 µM
Clc1ccc(C(CC2CCCCO2)Cn2cncn2)c(Cl)c1 (configuration not stated)	40 µM
O=C(Nc1ccc(Br)c(Cl)c1)Nc1ccc2c(c1)OCO2	16 µM
COc1ccccc1-c1c(C)[nH]c2nc(N)nc(C)c12	> 50 µM (inactive)
CC(C)Nc1nccc(-c2c(-c3ccc(F)cc3)ncn2C2CCOCC2)n1	> 50 µM (inactive)
CC(C)Oc1ccc(C(=O)Nc2ccc(N3CCOCC3)c(Cl)c2)cc1	10 µM
Cc1c(CNC(=O)c2ccc(Cn3cc(Cl)c([N+](=O)[O-])n3)cc2)cnn1C	> 50 µM (inactive)
CC(=O)Nc1nc(-c2cc(C)ccc2C)c(C)s1	25 µM
O=C(Nc1cccc(F)c1)N1CCC(Oc2cccc(-c3cccnc3)c2)CC1	40 µM
Cn1cncc1CN1CCC2(CC1)COC(Cc1ccccc1)C2 (configuration not stated)	25 µM
